This data set can be described thus: gradient 5% acetonitrile 3 min, to 50% in 2 min, to 85% in 15 min, held 3 min, 100 µL/min. The following applies: column: Zorbax Extend-C18 2.1 x 50 mm; eluents: water / acetonitrile, 0.1% formic acid. The procedure, abridged: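 Standards, all pure, were combined into mixtures of ~100 molecules and run at 100 μL/min on a Zorbax Extend-C18 column (2.1 × 50 mm, 1.8 μm) with water and acetonitrile, each containing 0.1% formic acid. A coupled quadrupole time-of-flight mass spectrometer operated in positive and negative ionization mode. Retention time values come from computationally picked adduct peaks, each inspected manually.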
`O=C(Cn1nc(N2CCCCCC2)c2ccccc2c1=O)NC1CCc2ccccc21` (stereo not given) yielded an RP-LC retention time of 1120 s.

For `COc1cccc(CNC(=O)C2(C)CCCN(C(=O)Nc3ccc(C)c(Cl)c3)C2)c1` (stereo not given), the RP-LC retention time worked out at 982 s.

With `CCCN1C(=O)C2CCC(=O)N2c2ccc(C(=O)NCCCN3CCOCC3)cc21` (stereo not given), the RP-LC retention time came to 570 s.

`CC1Oc2ccccc2N(Cc2nc(-c3ccc(Cl)c(F)c3)no2)C1=O` (stereo not given) registered an RP-LC retention time of 1190 s.

As to `CCCn1cnc2cc(-c3noc(C(NC(=O)c4ccco4)C(C)C)n3)ccc21` (stereo not given), the RP-LC retention time came out at 708 s.

On to `CCOc1ccccc1C(=O)Nc1ccc2c(c1)Sc1ncccc1C(=O)N2CC`, for which the RP-LC retention time is 822 s.

The compound `O=C(O)CSc1c(-c2ccccc2)c2cc(Cl)ccc2[nH]c1=O` displayed an RP-LC retention time of 806 s.

Take `Cc1ccn2c(NC(=O)c3cccc(F)c3)c(-c3ccccc3)nc2c1`: the RP-LC retention time amounted to 670 s.

`CS(=O)(=O)Nc1ccc(C2(C(=O)NCc3ccc(F)cc3Cl)CCCCC2)cc1` gave an RP-LC retention time of 979 s.

For the compound `CC(C)(C)NC(=O)N1CCC(CNC(=O)CSc2ccc(F)cc2)CC1`, the RP-LC retention time amounted to 715 s.

As to `COc1ccc(C2Cn3nnc(C(=O)N4CCN(C(=O)c5cc(F)ccc5F)CC4)c3CO2)cc1` (stereo not given), the RP-LC retention time worked out at 872 s.

Take `Cc1cccc2nc(-c3ccc(N(C)C)cc3)c(Nc3ccc4c(c3)OCO4)n12`: the RP-LC retention time was determined as 747 s.

`CN(C)c1ccc(CNC(=O)c2ccc3ncnc(N4CCCC4)c3c2)cc1` returned an RP-LC retention time of 556 s.

In turn, `COc1cc(-n2c(=O)c3ccccc3n(Cc3ccccc3F)c2=O)cc(OC)c1OC` yielded an RP-LC retention time of 850 s.

Regarding `O=S(=O)(c1cccs1)N1CCC(n2cnnc2-c2ccccc2)CC1`, the RP-LC retention time turned out to be 744 s.

On to `O=C1CC(Nc2ccc(N3CCCCC3)cc2)C(=O)N1c1ccccc1F` (stereo not given), for which the RP-LC retention time was determined as 571 s.

Regarding `CCOc1ccccc1-c1nc(-c2ccc3ncn(CC)c3c2)no1`, the RP-LC retention time was 788 s.

`CCCCn1c(CN2CCOCC2)nc2cc(NC(=O)c3cccs3)ccc21`: the RP-LC retention time was 678 s.

`O=c1c2cnc3nc(-c4ccccc4Cl)nn3c2ccn1-c1ncn[nH]1`: the RP-LC retention time was found to be 670 s.

In turn, `CCc1c(C2CCN(C(=O)C3COc4ccccc4O3)CC2)noc1N` (stereo not given) displayed an RP-LC retention time of 684 s.

`CCOC(=O)c1cnn(-c2ccc(C(=O)NC(C)C)cc2)c1N` displayed an RP-LC retention time of 823 s.

For the compound `COc1ccc(CCN2C(=O)CC(N3CCN(c4ccccc4)CC3)C2=O)cc1OC` (stereo not given), the RP-LC retention time amounted to 780 s.

With `Cc1cccc2nnc(N3CCN(C(=O)c4cccs4)CC3)n12`, the RP-LC retention time was determined as 618 s.

Regarding `CC1=C(C(=O)N(CC(=O)NCc2ccccc2)c2ccc(Cl)cc2)SCCO1`, the RP-LC retention time amounted to 934 s.

In turn, `c1ccc(N2CCN(Cc3nc(-c4ccc(N5CCSCC5)nc4)no3)CC2)cc1` returned an RP-LC retention time of 937 s.

In the case of `CC1OC1c1ccc(-c2ccc(C3OC3C)cc2)cc1` (stereo not given), the RP-LC retention time was 1140 s.

The compound `COc1ccc2c(C)cc(C)nc2n1` had an RP-LC retention time of 595 s.

In turn, `CCc1nc2c(c(=O)n1CC(=O)Nc1c(C)cccc1C)CN(Cc1ccccc1)CC2` gave an RP-LC retention time of 645 s.

As to `Cc1ccc(C)c(NC(=O)Cn2cnc3nc(N4CCCC(C(=O)NC(C)C)C4)sc3c2=O)c1` (stereo not given), the RP-LC retention time worked out at 731 s.

For `Cc1ccc(NC(=O)C2CC(=O)N(c3cccc(NC(=O)C(C)C)c3)C2)cc1Cl` (stereo not given), the RP-LC retention time came out at 872 s.

As to `COc1cc2c(cc1OC)C(C(=O)NCCCN1CCCC1)C(c1cccs1)N(C)C2=O` (stereo not given), the RP-LC retention time was found to be 606 s.

For `O=C(O)c1cnc(N2CCSCC2)nc1-c1cccc(Cl)c1`, the RP-LC retention time was found to be 964 s.

For `Cc1ccc(NS(=O)(=O)c2cn(C)c3ncccc23)cc1`, the RP-LC retention time was found to be 774 s.

`O=C(NCc1ccccc1Cl)C1COCC(=O)N1Cc1ccccc1` (stereo not given) had an RP-LC retention time of 724 s.

Regarding `CCCN1C(=O)C2CCC(=O)N2c2ccc(C(=O)NC(C)c3ccccc3)cc21` (stereo not given), the RP-LC retention time amounted to 801 s.

`O=C(NCCc1ccco1)c1cc2n(n1)CCCN(Cc1ccc(Cl)cc1)C2=O` displayed an RP-LC retention time of 857 s.

As for `COC(=O)c1cccc(C(=O)Nc2ccccc2)n1`, the RP-LC retention time was found to be 800 s.

Turning to `Cc1ccc(NC(=O)N2CCCC2c2nc(-c3ccccc3C)no2)cc1` (stereo not given), the RP-LC retention time was found to be 598 s.

For the compound `Cc1nnc(N2C(=O)C(O)=C(C(=O)c3ccco3)C2c2ccc([N+](=O)[O-])cc2)s1` (stereo not given), the RP-LC retention time worked out at 793 s.

As for `O=C(c1ccsc1)N1CCOc2ccc(N3CCOCC3)cc2C1`, the RP-LC retention time amounted to 701 s.

`CC(C)NC(=O)Cn1cccc(-c2nc(-c3ccc(Cl)cc3)no2)c1=O` had an RP-LC retention time of 807 s.

On to `COCCC(=O)N1CCCn2nc(-c3cccs3)cc2C1`, for which the RP-LC retention time came to 682 s.

Turning to `Cc1cc(OCCCCOc2ccc(C#N)cc2)ccc1[N+](=O)[O-]`, the RP-LC retention time stood at 1250 s.

Consider `Cc1ccc(CN2CCN(C3CCN(C(=O)Nc4ccc5c(c4)OCO5)CC3)C2=O)cc1`, for which the RP-LC retention time was 841 s.

For `CC1CCN(C(=O)C(=O)NCc2n[nH]c(=O)c3ccccc23)CC1`, the RP-LC retention time turned out to be 639 s.

For `CN(C)CCNC(=O)C1CCN(C(=O)c2cc3ccsc3n2Cc2ccc(Cl)cc2)CC1`, the RP-LC retention time was 685 s.

`COc1ccccc1N1CCN(CC2CN3C(=O)N(C)c4ccccc4C3=N2)CC1` (stereo not given) gave an RP-LC retention time of 662 s.

In turn, `COc1cccc(-c2cn3ccn(-c4ccc(Br)cc4)c(=O)c3n2)c1` returned an RP-LC retention time of 866 s.

`COc1ccc(-c2nc(C3CC(=O)N(c4ccc(C)cc4)C3)no2)c(OC)n1` (stereo not given) yielded an RP-LC retention time of 1040 s.

In turn, `CCc1ccc(C2=C(C)C(N3CCCN(C(=O)CC(C)C)CC3)=NS2(=O)=O)cc1` came in with an RP-LC retention time of 874 s.

For `CC(=O)N1CCc2cc(S(=O)(=O)CCC(=O)N3CCC(CCOc4ccccc4)C3)ccc21` (stereo not given), the RP-LC retention time amounted to 822 s.

Compound `CCCNC(=O)CC1Sc2ncccc2N(CCC)C1=O` (stereo not given) had an RP-LC retention time of 683 s.

With `COc1ccc(-c2nc(-c3ccc4c(c3)ncn4CCC(=O)N3CCCC3)no2)cc1`, the RP-LC retention time is 742 s.

`CC(C)c1noc(C2(NC(=O)c3ccoc3)CCCCC2)n1` showed an RP-LC retention time of 867 s.

As to `CCS(=O)(=O)N1CCCC(Cn2cc(COc3ccc4c(c3)CCC4)nn2)C1` (stereo not given), the RP-LC retention time came out at 963 s.

`COc1cccc(-n2cc(C(=O)O)c3ccccc3c2=O)c1` displayed an RP-LC retention time of 760 s.

With `CCn1cc(C)c(C(=O)O)c1CC(=O)N1CCC(c2ccccc2)C1` (stereo not given), the RP-LC retention time is 802 s.

In the case of `CCOc1cc(C(=O)N2CCCC(C)(C(=O)NCc3ccc(C)cc3)C2)cc(OCC)c1OCC` (stereo not given), the RP-LC retention time turned out to be 1010 s.

For the compound `O=C(NCc1ccc2c(c1)OCO2)C1CCCN(c2ccnc(-c3ccc(F)cc3)n2)C1` (stereo not given), the RP-LC retention time came out at 660 s.

On to `Cc1cnc(C)n1CC1CCN(S(=O)(=O)c2ccc(C#N)cc2)C1` (stereo not given), for which the RP-LC retention time is 628 s.

(Values after the METLIN SMRT retention time set (Domingo-Almenara et al. 2019).)
